Reference: PubChem BioAssay (NCI)
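1) Cells in 96-well plates. 2) Compound, 48 h, 5 concentrations. 3) Linear interpolation between surrounding doses. 4) Unreached endpoint = highest concentration. At the GI50, growth is halved. TGI: concentration producing complete growth inhibition.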

How the values were obtained:
Assay in all cases: DTP human tumour cell line panel, 48 h
MDA-MB-435 = test system: MDA-MB-435
SK-MEL-28 melanoma = test system: SK-MEL-28 melanoma
OVCAR-3 ovarian = test system: OVCAR-3 ovarian
COLO 205 colon = test system: COLO 205 colon
PC-3 prostate = test system: PC-3 prostate
HCT-116 colon = test system: HCT-116 colon
SK-MEL-2 melanoma = test system: SK-MEL-2 melanoma
UACC-62 melanoma = test system: UACC-62 melanoma
NCI-H522 lung = test system: NCI-H522 lung
HL-60(TB) leukemia = test system: HL-60(TB) leukemia

Compound	GI50 (MDA-MB-435) [µM]	TGI (MDA-MB-435) [µM]	GI50 (SK-MEL-28 melanoma) [µM]	TGI (SK-MEL-28 melanoma) [µM]	GI50 (OVCAR-3 ovarian) [µM]	TGI (OVCAR-3 ovarian) [µM]	GI50 (COLO 205 colon) [µM]	TGI (COLO 205 colon) [µM]	GI50 (PC-3 prostate) [µM]	TGI (PC-3 prostate) [µM]	GI50 (HCT-116 colon) [µM]	TGI (HCT-116 colon) [µM]	GI50 (SK-MEL-2 melanoma) [µM]	TGI (SK-MEL-2 melanoma) [µM]	GI50 (UACC-62 melanoma) [µM]	TGI (UACC-62 melanoma) [µM]	GI50 (NCI-H522 lung) [µM]	TGI (NCI-H522 lung) [µM]	TGI (HL-60(TB) leukemia) [µM]	GI50 (HL-60(TB) leukemia) [µM]
O=C(Nc1nc(-c2ccccc2Cl)cs1)c1cc(-c2ccc(Cl)cc2)nc2ccc(Cl)cc12	1.71	4.72	5.61	> 100	2.64	13.1	33.6	> 100	3.25	34.5	0.395	13.2	7.81	> 100	2.47	26	3.48	42.6		
O=C(O)C1C2CCC(O2)C1C(=O)NCc1cccnc1 (centres undefined)		> 100		> 100		> 100		> 100		> 100		> 100		> 100		> 100		> 100		
COC(=O)c1cc2c(nc1C)-c1ccccc1OS2(=O)=O						> 100		> 100				> 100				> 100		> 100	> 100	
ClCc1ccc(-c2ccc(Cn3cnc4c(Cl)ncnc43)cc2)cc1			2.49	7.79	1.83	3.8	1.82	4.27	2.8	9.92	1.48	2.79	3.7	> 100	1.58	3.44	4.01	> 100	5.59	2.18
Cc1cc(Cl)ccc1Nc1nc2c(s1)C(=O)c1ccccc1C2=O				4.14		4.6		16.8		8.05		5.25		22.7		7.41		4.08	2.68	
C=CCCCC(O)c1ccc(C(O)c2cnc3ccccc3c2)o1 (centres undefined)	22.5	48.4	69.1	> 100	88.2	> 100	33.7	> 100	32.6	> 100			34.1	> 100	19.8	39.8	28.4	> 100		
CCOC(=O)Nc1cc(-c2ccc(C)c(NS(C)(=O)=O)c2)nn2c(C)nnc12	1.33	41.7	2.69	> 100	1.36	6.56	0.452	1.55	1.36	> 100	1.9	15.3			0.445	18.5	0.381	3.22	2.71	0.334
COc1cc(/C=C2\CC3C4CCC5=CC(=O)CC[C@]5(C)C4CC[C@]3(C)C2=O)ccc1OCCN1CCCCC1 (some centres undefined)	1.97	4.28	2.59	6.13	1.83	4.59	5.34	35.2	2.33	12.8	2.11	5.75	22	> 100	2.39	5.84	8.95	> 100		
COC(=O)Cc1nn2c(nc1=O)sc1ccc3ccccc3c12				> 100		> 100		> 100				> 100		> 100				> 100	> 100	
COc1cc2oc(-c3ccc(O)cc3)cc(=O)c2c(OC)c1O		> 100		> 100		> 100		> 100				> 100		> 100		> 100		> 100	> 100	
C=C1CCC2(C(C)=O)COC1(C)O2 (centres undefined)				> 100		> 100		> 100				> 100				> 100		> 10	> 100	
O=C1CCCCCCCCCCOC(=O)CCCCCCCCCCO1				> 100		> 100		> 100				> 100		> 100		> 100		> 100	44.8	
CN(CCCCN)c1ccc2c(=O)[nH][nH]c(=O)c2c1				> 100		> 100		> 100				> 100		> 100		> 77		> 100	> 100	
COc1c(OC)c(OC)c(-c2cc(=O)c3c(OC)c(OC)c(OC)c(OC)c3o2)c(OC)c1OC		> 100		> 100		33.5		> 100				44.9		> 100		> 100		33.8	> 100	
CCOC(=O)CP(=S)(S)c1ccccc1 (centres undefined)				> 100				> 100						> 100		> 100		> 100	> 100	
C1=CC(=NN=P(c2ccccc2)(c2ccccc2)c2ccccc2)C=C1				> 100		> 100		> 100						> 100		> 100		> 100	> 100	
O=C1c2ccccc2-c2ccccc2C1(Cl)Cl	0.197	0.372	1.8	3.24	1.41	2.71	1.81	3.47	1.08	3.31	0.3	1.09	1.52	3.02	1.66	3.34			5.93	2.29
O=Cc1cn(S(=O)(=O)c2ccccc2)c2ccccc12				> 100		> 100						40.1				86			49.2	
CC(O)c1ccc(C(O)/C(=N\NC(=O)c2ccncc2)c2nc3ccc([N+](=O)[O-])cc3[nH]c2=O)cc1 (centres undefined)				> 100		> 100		> 100				> 100				> 100		> 100	> 100	
O=[P+](O)c1cccnc1				> 100		> 100		> 100				> 100				> 100		> 100	> 100	
C=CNC(=S)n1nc(-c2ccccc2NC(=O)C(F)(F)F)c(=O)n(C(=S)NC=C)c1=S				> 100		28.8						> 100		> 100		> 100		60.5		
Cn1cc(-c2ccc3nnc(C(F)(F)c4ccc5ncccc5c4)n3n2)cn1	57.8	> 100	> 85.8	> 100	80.5	> 100	59.6	> 100	85	> 100	61.9	> 100	50.6	> 100	66.1	> 100			> 100	> 100

Compound	GI50 (MDA-MB-435) [µM]	TGI (MDA-MB-435) [µM]	GI50 (SK-MEL-28 melanoma) [µM]	TGI (SK-MEL-28 melanoma) [µM]	GI50 (OVCAR-3 ovarian) [µM]	TGI (OVCAR-3 ovarian) [µM]	GI50 (COLO 205 colon) [µM]	TGI (COLO 205 colon) [µM]	GI50 (PC-3 prostate) [µM]	TGI (PC-3 prostate) [µM]	GI50 (HCT-116 colon) [µM]	TGI (HCT-116 colon) [µM]	GI50 (SK-MEL-2 melanoma) [µM]	TGI (SK-MEL-2 melanoma) [µM]	GI50 (UACC-62 melanoma) [µM]	TGI (UACC-62 melanoma) [µM]	GI50 (NCI-H522 lung) [µM]	TGI (NCI-H522 lung) [µM]	TGI (HL-60(TB) leukemia) [µM]	GI50 (HL-60(TB) leukemia) [µM]
C1C[S][Ge]2([S]CCS1)[S]CCSCC[S]2			> 100	> 100			> 100	> 100			> 100	> 100	> 100	> 100	> 100	> 100	> 100	> 100	> 100	> 100
C/C(CC(=O)Nc1ccc([N+](=O)[O-])cc1)=N\Nc1ccc([N+](=O)[O-])cc1[N+](=O)[O-]				> 100		> 100		> 100				> 100		> 100		> 100		85.5	> 100	
C[C@H]1CCC2C(CN3CCCCC3)C(=O)OC2[C@]2(C)C(=O)CC(N3CCCCC3)C12O (some centres undefined)				32.9		14.7		18.6				12		90.4		5.92		3.25	10.6	
c1cnc2nc3n(c2c1)CSC3				> 100		> 100		> 100						> 100		> 100		> 100	> 100	
Cn1c2c(c3ccccc31)CCN(CCCN1CCN(c3ccccc3)CC1)C2=O				36.7				37				29.8				37.4		30.9	33.6	
O=C(O)CCCc1cc2c(s1)-c1cccc3cccc-2c13				> 100		49.5		42.3				> 100		46.3		47.2		51.1	57.5	
Cc1cc(N(CCC#N)CCC#N)ccc1CC1N=C(c2ccccc2)OC1=O (centres undefined)				> 100		> 100		> 100				> 100		> 100		> 100		> 100	> 100	
O=c1[nH]c(-c2ccc([N+](=O)[O-])cc2)nc2ccc(Cl)cc12				> 100				> 100				> 100		> 100		> 100				
C/C(CC(=O)Nc1cccc(C)c1C)=N\NC(N)=S				> 100		> 100		> 100				> 100		> 100		> 100		> 100	> 100	
COC(=O)C1=Cc2cn(S(=O)(=O)c3ccc(C)cc3)c3cccc(c23)C(C=C(C)C)N1C(C)=O (centres undefined)						> 100		18.3				> 100		29.5		> 100		20	41.2	
Cn1c(=O)c(-c2c(Cl)cccc2Cl)cc2cnc(Nc3ccc(I)cc3)nc21	< 0.0304		0.479	> 73.6	0.0158	0.064	0.0458	0.324	< 0.012	> 100		0.305	1.52	> 100	0.301	1.28	0.457	1.89		
O=c1sc(-c2nc3ccccc3[nH]2)c(/N=C/c2ccccc2)n1-c1ccccc1				> 100		65.6		> 100						> 100		> 100		> 100	> 100	
CC(C)(N)C(=O)N[C@@H]1C(=O)N2[C@@H]1SC(C)(C)[C@@H]2C(=O)O		> 100		> 100		> 100		> 100		> 100		> 100		> 100		> 100		> 100		
c1ccc(N2N=NC3C4CC(C5c6ccccc6C45)C32)cc1 (centres undefined)						> 100		> 100				82.7				> 100		50.9	85.5	
Cc1cc(C)c(C2=NO[C@@H]3C(=O)N(c4ccc(Cc5ccc(N6C(=O)[C@H]7C(c8c(C)cc(C)cc8C)=NO[C@H]7C6=O)cc5)cc4)C(=O)[C@H]23)c(C)c1				> 100		> 100		> 100						> 100		> 100			> 100	
C=C(C)[C@@H]1CC[C@]2(C(=O)N3CCN(C)CC3)CC[C@]3(C)[C@H](CC[C@@H]4[C@@]5(C)CC[C@H](O)C(C)(C)[C@@H]5CC[C@]43C)[C@@H]12	1.8	3.5	1.8	3.48	1.9	3.49	1.89	4.26	1.74	3.48	1.47	3.51	1.64	3.14	1.72	3.3	1.92	3.8		
O=C(O)c1ccccc1C1c2ccc(Cl)cc2Oc2cc(Cl)ccc21				> 100		> 100		> 100						> 100		> 100		> 100	> 100	
CN(CC1NCCCC1O)C12CC3CC(CC(C3)C1)C2 (centres undefined)						> 100		> 100								> 100		> 100	> 100	
COc1cc(=O)oc(/C=C/CO)c1C				> 100		> 100		> 100				> 100				> 100		> 100	> 100	
CCOC(=O)Cn1c(=O)[nH]c(=O)c2[nH]cnc21				> 100		> 100		> 100				> 100		> 100		> 100		> 100	> 100	
C=CCn1c(=O)c(C(=O)NC(=O)OCC)cn(C2CCCCC2)c1=O				> 100		> 100		> 100				> 100		> 100		> 100			> 100	
